Test results as given in the supplement of paper PMC11061612.

Columns and labels:
AZD1775 = compound: C=CCn1c(=O)c2cnc(Nc3ccc(N4CCN(C)CC4)cc3)nc2n1-c1cccc(C(C)(C)O)n1 [AZD1775]; details: max 3 µM
Outline: (§1)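 Cancer cell lines were dosed for 72 hours (final DMSO typically 0.2%) after 24 hours at 37°C and 5% CO2 in 1536-well plates containing 7.5 μl DMEM/F12 or RPMI with 10% FBS. Viability came from CellTiter-Glo 2.0 luminescence, scaled between blank-well and DMSO-well means, and dose responses were fitted to a two-parameter logistic curve with a non-linear mixed effects model. The single-agent IC50 was obtained from this fit.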

Capivasertib = compound: C1CN(CCC1(C(=O)N[C@@H](CCO)C2=CC=C(C=C2)Cl)N)C3=NC=NC4=C3C=CN4 [Capivasertib]
Outline: as §1

Olaparib = compound: O=C(c1cc(Cc2n[nH]c(=O)c3ccccc23)ccc1F)N1CCN(C(=O)C2CC2)CC1 [Olaparib]
Outline: as §1

AZD0156 = compound: CN(C)CCCOc1ccc(-c2ccc3ncc4c(c3c2)n(C2CCOCC2)c(=O)n4C)cn1 [AZD0156]; details: max 3 µM
Outline: as §1

AZD8186 = compound: C[C@@H](Nc1cc(F)cc(F)c1)c1cc(C(=O)N(C)C)cc2c(=O)cc(N3CCOCC3)oc12 [AZD8186]
Outline: as §1

Savolitinib = compound: C[C@@H](c1ccc2nccn2c1)n1nnc2ncc(-c3cnn(C)c3)nc21 [Savolitinib]; details: max 1 µM
Outline: as §1

Prexasertib = compound: COc1cccc(OCCCN)c1-c1cc(Nc2cnc(C#N)cn2)n[nH]1 [Prexasertib]; details: max 1 µM
Outline: as §1

AZD2811 = compound: CCN(CCO)CCCOc1ccc2c(Nc3cc(CC(=O)Nc4cccc(F)c4)[nH]n3)ncnc2c1 [AZD2811]; details: max 1 µM
Outline: as §1

AZD5991 = compound: Cc1c2c(nn1C)CSCc1cc(n(C)n1)CSc1cc(c3ccccc3c1)OCCCc1c(C(=O)O)n(C)c3c-2c(Cl)ccc13 [AZD5991]; details: max 1 µM
Outline: as §1

Selumetinib = compound: Cn1cnc2c(F)c(Nc3ccc(Br)cc3Cl)c(C(=O)NOCCO)cc21 [Selumetinib]; details: max 10 µM
Outline: as §1

Crizotinib = compound: C[C@@H](Oc1cc(-c2cnn(C3CCNCC3)c2)cnc1N)c1c(Cl)ccc(F)c1Cl [Crizotinib]; details: max 10 µM
Outline: as §1

AZD1390 = compound: CC(C)n1c(=O)n(C)c2cnc3cc(F)c(-c4ccc(OCCCN5CCCCC5)nc4)cc3c21 [AZD1390]; details: max 0.3 µM
Outline: as §1

Gefitinib = compound: COc1cc2ncnc(Nc3ccc(F)c(Cl)c3)c2cc1OCCCN1CCOCC1 [Gefitinib]; details: max 10 µM
Outline: as §1

SN-38 = compound: CCc1c2c(nc3ccc(O)cc13)-c1cc3c(c(=O)n1C2)COC(=O)[C@]3(O)CC [SN-38]; details: max 0.3 µM
Outline: as §1

AZD5153 = compound: COc1nnc2ccc(N3CCC(c4ccc(OCCN5CCN(C)C(=O)[C@H]5C)cc4)CC3)nn12 [AZD5153]; details: max 1 µM
Outline: as §1

Trametinib = compound: CC(=O)Nc1cccc(-n2c(=O)n(C3CC3)c(=O)c3c(Nc4ccc(I)cc4F)n(C)c(=O)c(C)c32)c1 [Trametinib]; details: max 1 µM
Outline: as §1

Dasatinib = compound: CC1=C(C(=CC=C1)Cl)NC(=O)C2=CN=C(S2)NC3=CC(=NC(=N3)C)N4CCN(CC4)CCO [Dasatinib]; details: max 2 µM
Outline: as §1

Alisertib = compound: COc1cc(Nc2ncc3c(n2)-c2ccc(Cl)cc2C(c2c(F)cccc2OC)=NC3)ccc1C(=O)O [Alisertib]; details: max 10 µM
Outline: as §1

Taselisib = compound: Cc1nc(-c2cn3c(n2)-c2ccc(-c4cnn(C(C)(C)C(N)=O)c4)cc2OCC3)n(C(C)C)n1 [Taselisib]; details: max 10 µM
Outline: as §1

Palbociclib = compound: CC(=O)c1c(C)c2cnc(Nc3ccc(N4CCNCC4)cn3)nc2n(C2CCCC2)c1=O [Palbociclib]; details: max 10 µM
Outline: as §1

AZD6738 = compound: C[C@@H]1COCCN1C2=NC(=NC(=C2)C3(CC3)[S@](=N)(=O)C)C4=C5C=CNC5=NC=C4 [AZD6738]; details: max 10 µM
Outline: as §1

AZD4320 = compound: CN(CC[C@H](CSC1=CC=CC=C1)NC2=C(C=C(C=C2)S(=O)(=O)NC(=O)C3=CC=C(C=C3)N4CCC(CC4)[C@H](C5=CC=CC=C5C6=CC=C(C=C6)Cl)O)S(=O)(=O)C(F)(F)F)CCO [AZD4320]; details: max 1 µM
Outline: as §1

AZD7648 = compound: Cc1cc2ncnn2cc1Nc1ncc2c(n1)n(C1CCOCC1)c(=O)n2C [AZD7648]; details: max 10 µM
Outline: as §1

Venetoclax = compound: CC1(C)CCC(CN2CCN(c3ccc(C(=O)NS(=O)(=O)c4ccc(NCC5CCOCC5)c([N+](=O)[O-])c4)c(Oc4cnc5[nH]ccc5c4)c3)CC2)=C(c2ccc(Cl)cc2)C1 [Venetoclax]; details: max 1 µM
Outline: as §1

Lapatinib = compound: CS(=O)(=O)CCNCc1ccc(-c2ccc3ncnc(Nc4ccc(OCc5cccc(F)c5)c(Cl)c4)c3c2)o1 [Lapatinib]; details: max 10 µM
Outline: as §1

Etoposide = compound: COc1cc([C@@H]2c3cc4c(cc3[C@@H](O[C@@H]3O[C@@H]5CO[C@@H](C)O[C@H]5[C@H](O)[C@H]3O)[C@H]3COC(=O)[C@H]23)OCO4)cc(OC)c1O [Etoposide]; details: max 10 µM
Outline: as §1

Carboplatin = compound: C1CC(C1)(C(=O)[O-])C(=O)[O-].N.N.[Pt+2] [Carboplatin]; details: max 10 µM
Outline: as §1

MK-2206 = compound: NC1(c2ccc(-c3nc4ccn5c(=O)[nH]nc5c4cc3-c3ccccc3)cc2)CCC1 [MK-2206]; details: max 10 µM
Outline: as §1

SG3199 = compound: CC1=CN2[C@@H](C1)C=NC3=CC(=C(C=C3C2=O)OC)OCCCCCOC4=C(C=C5C(=C4)N=C[C@@H]6CC(=CN6C5=O)C)OC [SG3199]; details: max 0.001 µM
Outline: as §1

Paclitaxel = compound: CC(=O)O[C@H]1C(=O)[C@@]2(C)[C@H]([C@H](OC(=O)c3ccccc3)[C@]3(O)C[C@H](OC(=O)[C@H](O)[C@@H](NC(=O)c4ccccc4)c4ccccc4)C(C)=C1C3(C)C)[C@]1(OC(C)=O)CO[C@@H]1C[C@@H]2O [Paclitaxel]; details: max 3 µM
Outline: as §1

[1] = compound: O=C(Nc1ccc2[nH]nc(-c3ccncc3)c2c1)[C@@H]1CCN(CC(=O)N2CCN(c3ccc(-c4ncccn4)cc3)CC2)C1; details: max 5 µM
Outline: as §1

5-Fluorouracil = compound: O=c1[nH]cc(F)c(=O)[nH]1 [5-Fluorouracil]; details: max 20 µM
Outline: as §1

SRA737 = compound: N#Cc1cnc(Nc2cc(NC[C@H]3CNCCO3)c(C(F)(F)F)cn2)cn1 [SRA737]; details: max 10 µM
Outline: as §1

AZD5363 = compound: C1CN(CCC1(C(=O)N[C@@H](CCO)C2=CC=C(C=C2)Cl)N)C3=NC=NC4=C3C=CN4 [AZD5363]; details: max 10 µM
Outline: as §1

Gemcitabine = compound: Nc1ccn([C@@H]2O[C@H](CO)[C@@H](O)C2(F)F)c(=O)n1 [Gemcitabine]; details: max 0.3 µM
Outline: as §1

Doxorubicin = compound: COc1cccc2c1C(=O)c1c(O)c3c(c(O)c1C2=O)C[C@@](O)(C(=O)CO)C[C@@H]3O[C@H]1C[C@H](N)[C@H](O)[C@H](C)O1 [Doxorubicin]; details: max 1 µM
Outline: as §1

Cell Line	IC50, cell viability 72 h (AZD1775)	IC50, cell viability 72 h (Capivasertib; max 3 µM)	IC50, cell viability 72 h (Olaparib; max 3 µM)	IC50, cell viability 72 h (AZD0156)	IC50, cell viability 72 h (AZD8186; max 3 µM)	IC50, cell viability 72 h (Savolitinib)	IC50, cell viability 72 h (Prexasertib)	IC50, cell viability 72 h (AZD2811)	IC50, cell viability 72 h (AZD5991)	IC50, cell viability 72 h (Selumetinib)	IC50, cell viability 72 h (Crizotinib)	IC50, cell viability 72 h (AZD1390)	IC50, cell viability 72 h (Gefitinib)	IC50, cell viability 72 h (SN-38)	IC50, cell viability 72 h (AZD5153)	IC50, cell viability 72 h (Trametinib)	IC50, cell viability 72 h (Dasatinib)	IC50, cell viability 72 h (Alisertib)	IC50, cell viability 72 h (Taselisib)	IC50, cell viability 72 h (Capivasertib; max 10 µM)	IC50, cell viability 72 h (Palbociclib)	IC50, cell viability 72 h (AZD6738)	IC50, cell viability 72 h (AZD4320)	IC50, cell viability 72 h (AZD7648)	IC50, cell viability 72 h (Venetoclax)	IC50, cell viability 72 h (Lapatinib)	IC50, cell viability 72 h (Etoposide)	IC50, cell viability 72 h (Carboplatin)	IC50, cell viability 72 h (AZD8186; max 10 µM)	IC50, cell viability 72 h (MK-2206)	IC50, cell viability 72 h (SG3199)	IC50, cell viability 72 h (Paclitaxel)	IC50, cell viability 72 h [1]	IC50, cell viability 72 h (5-Fluorouracil)	IC50, cell viability 72 h (SRA737)	IC50, cell viability 72 h (AZD5363)	IC50, cell viability 72 h (Olaparib; max 10 µM)	IC50, cell viability 72 h (Gemcitabine)	IC50, cell viability 72 h (Doxorubicin)
NCI-H1869 (Non-Small Cell Lung Carcinoma)	> 3 µM	> 3 µM	> 3 µM	> 3 µM																																			
RC-K8 (B-Cell Non-Hodgkin's Lymphoma)	> 3 µM		> 3 µM	> 3 µM	> 3 µM	> 1 µM	0.0145 µM	> 1 µM	> 1 µM	> 10 µM	> 10 µM	> 0.3 µM	> 10 µM	0.0134 µM	0.1 µM	> 1 µM	> 2 µM	3 µM	7.69 µM	> 10 µM	> 10 µM	1.63 µM	0.856 µM	> 10 µM	> 1 µM	> 10 µM													
Ramos-2G6-4C10 (Burkitt's Lymphoma)	0.307 µM			> 3 µM		> 1 µM	0.0105 µM	> 1 µM	0.168 µM	> 10 µM	> 10 µM	> 0.3 µM	> 10 µM	0.0783 µM	0.389 µM	> 1 µM	> 2 µM	> 10 µM	> 10 µM		> 10 µM	3.09 µM	> 1 µM	> 10 µM	> 1 µM	> 10 µM	9.17 µM	> 10 µM	> 10 µM	5.61 µM	> 0.001 µM	0.0159 µM	> 5 µM	> 20 µM	3.72 µM	> 10 µM	> 10 µM	> 0.3 µM	0.684 µM
T98G (Glioblastoma)	1.05 µM			> 3 µM		> 1 µM	0.031 µM	> 1 µM	> 1 µM	> 10 µM	> 10 µM	> 0.3 µM	> 10 µM	> 0.3 µM	> 1 µM	> 1 µM	0.287 µM	> 10 µM	5.87 µM		> 10 µM	2.59 µM	> 1 µM	> 10 µM	> 1 µM	> 10 µM	> 10 µM	> 10 µM	5.45 µM	> 10 µM	> 0.001 µM	0.0146 µM	> 5 µM	> 20 µM	2.04 µM	> 10 µM	> 10 µM	0.119 µM	> 1 µM
TE-9 (Esophageal Squamous Cell Carcinoma)	1.15 µM			> 3 µM		> 1 µM	0.548 µM	> 1 µM	> 1 µM	> 10 µM	> 10 µM	> 0.3 µM	> 10 µM	> 0.3 µM	> 1 µM	> 1 µM	> 2 µM	> 10 µM	> 10 µM		> 10 µM	> 10 µM	> 1 µM	> 10 µM	> 1 µM	> 10 µM	> 10 µM	> 10 µM	> 10 µM	> 10 µM	> 0.001 µM	0.068 µM	> 5 µM	> 20 µM	> 10 µM	> 10 µM	> 10 µM	> 0.3 µM	> 1 µM
UM-UC-3 (Bladder Carcinoma)	> 3 µM			> 3 µM		> 1 µM	0.799 µM	> 1 µM	> 1 µM	> 10 µM	> 10 µM	> 0.3 µM	> 10 µM	0.0153 µM	> 1 µM	> 1 µM	> 2 µM	> 10 µM	8.32 µM		> 10 µM	> 10 µM	> 1 µM	> 10 µM	> 1 µM	> 10 µM	3.45 µM	> 10 µM	> 10 µM	> 10 µM	> 0.001 µM	0.066 µM	> 5 µM	> 20 µM	> 10 µM	> 10 µM	> 10 µM	0.0582 µM	> 1 µM
